Source: US20090144861A1, “Fungicides and Bioregulatory Mixtures” (BASF Aktiengesellschaft, priority 2005, published 2009)

Assays:
[1] = test system: Erysiphe [syn. Blumeria] graminis forma specialis. tritici; experiment: Activity against mildew of wheat (Erysgt P1); format: in vivo, Erysiphe graminis f. sp. tritici on wheat seedlings; settings: sprayed 24 hours before inoculation, assessed after 7 days
Protocol: The active compounds were prepared separately or jointly as a stock solution with 25 mg of active compound which was made up to 10 ml using a mixture of acetone and/or DMSO and the emulsifier Uniperol® EL (wetting agent having emulsifying and dispersing action based on ethoxylated alkylphenols) in a volume ratio of solvent/emulsifier of 99 to 1. The mixture was then made up to 100 ml with water. This stock solution was diluted with the solvent/emulsifier/water mixture described to the concentration of active compounds stated below.
The visually determined percentages of infected leaf areas or the measured elongation were converted into efficacies in % of the untreated control:
The efficacy (E) is calculated as follows using Abbot's formula: […]
The expected efficacies of mixtures of active compounds were determined using Colby's formula (Colby, S. R. “Calculating synergistic and antagonistic responses of herbicide combinations”, Weeds, 15, pp. 20-22, 1967) and compared with the observed efficacies.
Use Example 2—Activity against mildew of wheat caused by Erysiphe [syn. Blumeria] graminis forma specialis. tritici (Erysgt P1)
Leaves of potted wheat seedlings were sprayed to run off point with an aqueous suspension having the active compound concentrations stated below. The suspension or emulsion had been prepared as described above. 24 hours after the spray coating had dried on, the plants were dusted with spores of mildew of wheat (Erysiphe [syn. Blumeria] graminis forma specialis. tritici). The test plants were then placed in a greenhouse at temperatures between 20 and 24° C. and at 60 to 90% relative atmospheric humidity. After 7 days, the extent of the mildew development was determined visually in % infection of the entire leaf area.
The visually determined values for the percentage of infected leaf area were initially converted into a mean value and then converted into efficacies in % of the untreated control. An efficacy of 0 means the same degree of infection as in the untreated control, an efficacy of 100 means 0% infection. The expected efficacies for active compound combinations were determined using Colby's formula (Colby, S. R. “Calculating synergistic and antagonistic responses of herbicide Combinations”, Weeds, 15, pp. 20-22, 1967) and compared to the observed efficacies.

[2] = test system: Puccinia recondita; experiment: Curative activity against brown rust of wheat (Puccrt K1); format: in vivo, Puccinia recondita on wheat seedlings cultivar Kanzler; settings: sprayed 1 day after inoculation, assessed after 7 days
Protocol: The active compounds were prepared separately or jointly as a stock solution with 25 mg of active compound which was made up to 10 ml using a mixture of acetone and/or DMSO and the emulsifier Uniperol® EL (wetting agent having emulsifying and dispersing action based on ethoxylated alkylphenols) in a volume ratio of solvent/emulsifier of 99 to 1. The mixture was then made up to 100 ml with water. This stock solution was diluted with the solvent/emulsifier/water mixture described to the concentration of active compounds stated below. […] The expected efficacies of mixtures of active compounds were determined using Colby's formula (Colby, S. R. “Calculating synergistic and antagonistic responses of herbicide combinations”, Weeds, 15, pp. 20-22, 1967) and compared with the observed efficacies. E=x+y−x×y/100 Use Example 1—Curative activity against brown rust of wheat caused by Puccinia recondita (Puccrt K1) Leaves of potted wheat seedlings of the cultivar “Kanzler” were inoculated with a spore suspension of brown rust (Puccinia recondita). The pots were then placed in a chamber with high atmospheric humidity (90 to 95%) at 20 to 22° C. for 24 hours. During this time, the spores germinated and the germ tubes penetrated into the leaf tissue. The next day, the infected plants were sprayed to run off point with the active compound solution described above at the active compound concentration stated below. […] The extent of the rust fungus development on the leaves was then determined. The visually determined values for the percentage of infected leaf area were initially converted into a mean value and then converted into efficacies in % of the untreated control. […] The expected efficacies for active compound combinations were determined using Colby's formula (Colby, S. R. “Calculating synergistic and antagonistic responses of herbicide Combinations”, Weeds, 15, pp. 20-22, 1967) and compared to the observed efficacies. […]

[3] = Conc. 1 mg/ml, efficacy in % of untreated control

Question: How did the Observed activity ([1]; Conc. 0.25 mg/ml) turn out when `Fc1ccc(C2(Cn3cncn3)OC2c2ccccc2Cl)cc1` (stereo not shown) [Epoxiconazole, epoxiconazole] was run?
Answer: 0%

Question: What about the Observed activity [1, 3] of the same compound?
Answer: 33%

Question: And the Observed activity ([2]; Conc. 0.25 mg/ml, efficacy in % of untreated control)?
Answer: 11%

Question: For `CCC(=O)C1=C([O-])CC(C(=O)[O-])CC1=O.[Ca+2]` (stereo not shown) [Prohexadione-Ca, prohexadione-calcium], which Observed activity ([1]; Conc. 0.25 mg/ml) is on record?
Answer: 0%

Question: What about the Observed activity [1, 3] of the same compound?
Answer: 0%

Question: What about the Observed activity ([2]; Conc. 0.06 mg/ml) of the same compound?
Answer: 0%

Question: And the Observed activity ([2]; Conc. 1 mg/ml)?
Answer: 0%
